pIC50: −log10 of the molar value. “And” between values parts separate entries of the source, which are not always exact repeats. Equal values may be shown once.
Legend:
[1] = test system: thymocyte proliferation (cells from the thymus, PHA and IL-1); assay: comitogen-induced thymocyte proliferation procedure (LAF); assay type: cell-based, BALB/c mice
Protocol: Briefly, cells from the thymus of normal BAUI/c mioe are cultured for 72 hours with PHA and IL-1 and pulsed with tritiated thymidine during the last six hours. […] Cells are harvested and incorporated; radioactivity is determined. Inhibition of lymphoproliferation is assessed in percent change in counts per minute from nondrug treated controls.

[2] = test system: pinch skin graft from male DBA/2 donors transplanted to male BALB/c recipients; assay: pinch skin graft survival; assay type: in vivo; details: intraperitoneal
Protocol: (§1) Immunosuppressive activity was evaluated in an in vitro standard pharmacological test procedure to measure lymphocyte proliferation (LAF), in an in vivo procedure to evaluate the survival time of a pinch skin graft, and in an in vivo procedure to determine inhibition of T-cell mediated inflammatory response (adjuvant arthritis).
The in vivo test procedure is designed to determine the survival time of pinch skin graft from male DBA/2 donors transplanted to male BALB/c recipients. The method is adapted from Brllingham R. E. and Medawar P. B., J. Exp. Biol. 28:385-402, (1951). Briefly, a pinch skin graft from the donor is grafted on the dorsum of the recipient as a homograft, and an autograft is used as control in the same region. […] Untreated recipients serve as rejection control. The graft is monitored daily and observations are recorded until the graft becomes dry and forms a blackened scab. This is considered as the rjection day. The mean graft survival time (MST -number of days±S.D.) of the drug treatment group is compared with the control group. Rapamycin treatment provides a mean graft survival (MST) of is 12.0±1.7 days.

[3] = test system: Freund's Complete Adjuvant (FCA) induced arthritis; assay: adjuvant arthritis standard pharmacological test procedure; assay type: in vivo, rats (male inbred Wistar Lewis)
Protocol: as §1
The in vivo adjuvant arthritis standard pharmacological test procedure measures the abilty of test compounds to prevent immune mediated inflammation and inhibit or treat rheumatoid arthritis. The following briefly describes the test procedure used. A group of rats (male inbred Wistar Lewis rats) are pre-treated with the compound to be tested (1 h prior to antigen) and then injected with Freund's Complete Adjuvant (FCA) in the right hind paw to induce arthritis. The rats are then orally dosed on a Monday, Wednesday, Friday schedule from day 0-14 for a total of 7 doses. Both hind paws are measured on days 16, 23 and 30. The difference in paw volume (mL) from day 16 to day 0 is determined and a percent change from control is obtained. The left hind paw (uninjected paw) inflammation is caused by T-cell mediated inflammation and is recorded as percent change from control. The right hind paw inflammation, on the other hand, is caused by non-specific inflammation. Compounds were tested at a dose of 2 mg/kg.

Candida albicans = details: particularly against Candida albicans, in vitro and in vivo; cited from earlier work
[4] = test system: experimental allergic encephalomyelitis model; details: model for multiple sclerosis; cited from earlier work
[5] = test system: formation of IgE-like antibodies; details: in vivo; cited from earlier work
[6] = test system: breast (T47D) cancer cell line; assay: inhibition of growth of human tumor cells in vitro (Sulforhodaine B); assay type: cell-based; details: 48 hours exposure
Protocol: (§2) Human tumor cell lines were plated in 96-well plates (250 μL well, 1-6×10^4 cells/mL) in RPMI 1640 medium, containing 5% FBS (Petal Bovine Serum). Twenty-four hours after plating, drugs were added at five log concentrations (0.01-100 μg/mL). After 48 hours exposure to drugs, cells were fixed with trichloroacteic acid, and stained with Sulforhodaine B. After washing with trichloroacetic acid, bound dye was solubilized in 10 mM Tris base and Optical Density was determined using a plate reader. Under conditions of the assay, the optical density is proportional to the number of cells in the well. IC50 s (concentrations causing 50% inhibition of cell growth) were determined from the growth inhibition plots. The assay is described in details by Philip Skehan et al., J. National Cancer Institute 82, 1107-1112, 1990.

[7] = test system: colon (MIP 101) cancer cell line; assay: as above; assay type: cell-based; details: MIP 101, 48 hours exposure
Protocol: as §2

[8] = test system: ovarian (A 2780S) cancer cell line; assay: as above; assay type: cell-based; details: 48 hours exposure
Protocol: as §2

Molecule	pIC50 ([1]; LAF, PHA and IL-1, 72 hours, read-out: IC50 analog)	R/A (ratio of the ID50s of rapamycin to the analog) ([1]; ratio less than 1.0 means the analog is less potent than rapamycin)	Skin Graft MST ± S.D. (mean graft survival time) [2]	immune-induced inflammation less than control rats ([3]; rapamycin treated rats versus control rats)	antifungal activity (Candida albicans)	effect in experimental allergic encephalomyelitis model [4]	inhibition of formation of IgE-like antibodies [5]	Adjuvant Arthritis % Change (uninjected paw at day 16 versus control) ([3]; 2 mg/kg, oral, more negative = more potent)	inhibition of cancer cell line growth [6]	inhibition of cancer cell line growth [7]	inhibition of cancer cell line growth [8]
29-O-Benzylrapamycin [Example 1]	8.38	0.12	7.2 days								
CO[C@H]1C[C@@H]2CC[C@@H](C)[C@@](O)(O2)C(=O)C(=O)N2CCCC[C@H]2C(=O)O[C@H]([C@H](C)C[C@@H]2CC[C@@H](O)[C@H](OC)C2)CC(=O)[C@H](C)/C=C(\C)[C@@H](O)[C@@H](OC)C(=O)[C@H](C)C[C@H](C)/C=C/C=C/C=C/1C [rapamycin]			12.0 ± 1.7 days	70-90%	antifungal activity	effective	effectively inhibited				
COCCOCCOCCO[C@@H]1CC[C@@H](C[C@@H](C)[C@@H]2CC(=O)[C@H](C)/C=C(\C)[C@@H](O)[C@@H](OC)C(=O)[C@H](C)C[C@H](C)/C=C/C=C/C=C(\C)[C@@H](OC)C[C@@H]3CC[C@@H](C)[C@@](O)(O3)C(=O)C(=O)N3CCCC[C@H]3C(=O)O2)C[C@H]1OC [Example 3, 42-O-(2-[2-(2-methoxyethoxy)-ethoxy]-ethyl)-rapamycin]			9.8 days and 9.7 days					-88%	submicromolar concentrations	submicromolar concentrations	submicromolar concentrations
